# Reference: ChEMBL document CHEMBL1140113, “Structural requirements for drug inhibition of the liver specific human organic cation transport protein 1” (J Med Chem, 2008)
# Target: T1, OCT1 (SLC22A1) (Homo sapiens, UniProt O15245)
# T1 sequence (O15245 whole entry): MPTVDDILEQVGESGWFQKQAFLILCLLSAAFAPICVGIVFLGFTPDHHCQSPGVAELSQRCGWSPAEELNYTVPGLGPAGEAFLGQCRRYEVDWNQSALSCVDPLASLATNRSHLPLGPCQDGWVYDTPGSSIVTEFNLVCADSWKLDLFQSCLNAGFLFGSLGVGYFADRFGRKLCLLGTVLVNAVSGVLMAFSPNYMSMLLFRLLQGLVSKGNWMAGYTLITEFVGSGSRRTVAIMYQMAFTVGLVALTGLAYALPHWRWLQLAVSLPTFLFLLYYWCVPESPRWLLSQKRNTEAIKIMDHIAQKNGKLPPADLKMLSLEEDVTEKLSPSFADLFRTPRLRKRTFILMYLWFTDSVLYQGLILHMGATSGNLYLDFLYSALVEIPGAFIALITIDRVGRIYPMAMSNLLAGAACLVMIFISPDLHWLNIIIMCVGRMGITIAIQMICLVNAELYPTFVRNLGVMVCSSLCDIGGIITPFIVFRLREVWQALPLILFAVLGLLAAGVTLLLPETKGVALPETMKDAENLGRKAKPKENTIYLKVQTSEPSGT
# Experiment: in vitro
# Conditions: HEK293 cells that express human OCT1, probe 4-(4-(dimethylamino)styryl)-N-methylpyridinium
row,SMILES,inhibition at 100 µM
1,CCOc1nc2cccc(C(=O)O)c2n1Cc1ccc(-c2ccccc2-c2nnn[nH]2)cc1,6.3%
2,CC1=C(CC(=O)O)c2cc(F)ccc2/C1=C\c1ccc([S+](C)[O-])cc1 (stereo not drawn),27.1%
3,CC(C)NC[C@H](O)c1ccc(O)c(O)c1,15.6%
4,N=C(N)c1ccc(CNC(=O)[C@@H]2CCN2C(=O)[C@H](NCC(=O)O)C2CCCCC2)cc1,-0.2%
5,CC(C)[N+]1(C)[C@@H]2CC[C@H]1C[C@@H](OC(=O)C(CO)c1ccccc1)C2 (stereo partly drawn),43.4%
6,CC(C)(C)NC(=O)[C@@H]1CN(Cc2cccnc2)CCN1C[C@@H](O)C[C@@H](Cc1ccccc1)C(=O)N[C@H]1c2ccccc2C[C@H]1O,43%
7,CCOC(=O)[C@H](CCc1ccccc1)N[C@@H](C)C(=O)N1CCC[C@H]1C(=O)O,14.6%
8,COc1ccc(CCN(C)CCCC(C#N)(c2ccc(OC)c(OC)c2)C(C)C)cc1OC (stereo not drawn),86.4%
9,COc1ccc(CCN(C)CCCC(C#N)(c2cc(OC)c(OC)c(OC)c2)C(C)C)cc1OC (racemic) [METHOXYVERAPAMIL],78.1%
10,COc1cc(C(O)CN)ccc1O (racemic) [NORMETANEPHRINE],-2.4%
11,COc1cc2c(cc1O)CC[C@@H]1[C@@H]2CC[C@]2(C)[C@@H](O)CC[C@@H]12 [2-METHOXYESTRADIOL],74.3%
12,C[C@H]1O[C@H](O[C@H]2[C@H](O)[C@@H](O)[C@@H](O[C@H]3[C@H](O)[C@@H](O)C(O)O[C@@H]3CO)O[C@@H]2CO)[C@H](O)[C@@H](O)[C@@H]1N[C@H]1C=C(CO)[C@@H](O)[C@H](O)[C@H]1O (stereo partly drawn) [ACARBOSE],3.9%
13,CCCC(=O)Nc1ccc(OCC(O)CNC(C)C)c(C(C)=O)c1 (stereo not drawn) [ACEBUTOLOL],40.9%
14,CCN(CC)CCNC(=O)c1ccc(NC(C)=O)cc1 [ACECAINIDE],13.7%
15,CC(=O)Nc1ccc(O)cc1 [ACETAMINOPHEN],-9.2%
16,CC(=O)N[C@@H](CS)C(=O)O [ACETYLCYSTEINE],15.5%
17,Nc1nc2c(ncn2COCCO)c(=O)[nH]1 [ACYCLOVIR],-3.9%
18,N=C(N)NCCCCN [AGMATINE],2.1%
19,Oc1ncnc2[nH]ncc12 [ALLOPURINOL],7.7%
20,CC1(C)S[C@@H]2[C@H](NC(=O)[C@H](N)c3ccccc3)C(=O)N2[C@H]1C(=O)O [AMPICILLIN],20.3%
21,C[C@]12CCC(=O)C=C1CC[C@@H]1[C@@H]2CC[C@]2(C)C(=O)CC[C@@H]12 [ANDROSTENEDIONE],65.1%
22,Cc1cc(=O)n(-c2ccccc2)n1C [ANTIPYRINE],20.7%
23,NC(N)=NCCCCN=C(N)N [ARCAINE],4.5%

row,SMILES,inhibition at 100 µM
1,CC(=O)Oc1ccccc1C(=O)O [ASPIRIN],-5.7%
2,CN1[C@@H]2CC[C@H]1C[C@@H](OC(=O)C(CO)c1ccccc1)C2 (stereo partly drawn) [ATROPINE],76.5%
3,NCC(CC(=O)O)c1ccc(Cl)cc1 (stereo not drawn) [BACLOFEN],20.7%
4,CCCC1O[C@@H]2C[C@H]3[C@@H]4CCC5=CC(=O)C=C[C@]5(C)[C@H]4[C@@H](O)C[C@]3(C)[C@]2(C(=O)CO)O1 (stereo partly drawn) [BUDESONIDE],38.2%
5,O=C1CC2(CCCC2)CC(=O)N1CCCCN1CCN(c2ncccn2)CC1 [BUSPIRONE],24.7%
6,Cn1c(=O)c2c(ncn2C)n(C)c1=O [CAFFEINE],-1.4%
7,C[C@H](CS)C(=O)N1CCC[C@H]1C(=O)O [CAPTOPRIL],0.3%
8,NC(=O)N1c2ccccc2C=Cc2ccccc21 [CARBAMAZEPINE],8.4%
9,CCCC(C)(COC(N)=O)COC(=O)NC(C)C (stereo not drawn) [CARISOPRODOL],19.8%
10,Cc1ccc(-c2cc(C(F)(F)F)nn2-c2ccc(S(N)(=O)=O)cc2)cc1 [CELECOXIB],7.7%
11,CC1=C(C(=O)O)N2C(=O)[C@@H](NC(=O)[C@H](N)c3ccccc3)[C@H]2SC1 [CEPHALEXIN ANHYDROUS],-1.9%
12,O=C(O)COCCN1CCN(C(c2ccccc2)c2ccc(Cl)cc2)CC1 (stereo not drawn) [CETIRIZINE],-4.8%
13,O=C(N[C@H](CO)[C@H](O)c1ccc([N+](=O)[O-])cc1)C(Cl)Cl [CHLORAMPHENICOL],1.4%
14,CCN(CC)CCCC(C)Nc1ccnc2cc(Cl)ccc12 (stereo not drawn) [CHLOROQUINE],46%
15,CCC[C@@H]1C[C@@H](C(=O)N[C@@H]([C@H]2O[C@H](SC)[C@H](O)[C@@H](O)[C@H]2O)[C@H](C)Cl)N(C)C1 [CLINDAMYCIN],19.5%
16,O=P(O)(O)C(Cl)(Cl)P(=O)(O)O [CLODRONIC ACID],5.6%
17,Clc1ccccc1C(c1ccccc1)(c1ccccc1)n1ccnc1 [CLOTRIMAZOLE],69.3%
18,CN1CCN(C2=Nc3cc(Cl)ccc3Nc3ccccc32)CC1 [CLOZAPINE],47.5%
19,COc1ccc2c3c1O[C@H]1[C@@H](O)C=C[C@H]4[C@@H](C2)N(C)CC[C@@]341 [CODEINE],39.1%
20,COc1cc2c(c(OC)c1OC)-c1ccc(OC)c(=O)cc1[C@@H](NC(C)=O)CC2 [COLCHICINE],31.9%
21,C[C@]12C[C@H](O)[C@H]3[C@@H](CCC4=CC(=O)CC[C@@]43C)[C@@H]1CC[C@@H]2C(=O)CO [CORTICOSTERONE],33.5%
22,CN1CC(=O)NC1=N [CREATININE],13.3%
23,CC(=O)[C@@]1(O)CC[C@H]2[C@@H]3C=C(Cl)C4=CC(=O)[C@@H]5C[C@@H]5[C@]4(C)[C@H]3CC[C@@]21C [CYPROTERONE],61.6%

row,SMILES,inhibition at 100 µM
1,NCCS [CYSTEAMINE],2.4%
2,CN1C(=O)CN=C(c2ccccc2)c2cc(Cl)ccc21 [DIAZEPAM],5%
3,O=C(O)Cc1ccccc1Nc1c(Cl)cccc1Cl [DICLOFENAC],-3.7%
4,COc1cc2nc(N3CCN(C(=O)C4COc5ccccc5O4)CC3)nc(N)c2cc1OC (stereo not drawn) [DOXAZOSIN],85.6%
5,C[C@H]1c2cccc(O)c2C(=O)C2=C(O)[C@]3(O)C(=O)C(C(N)=O)=C(O)[C@@H](N(C)C)[C@@H]3[C@@H](O)[C@@H]21 [DOXYCYCLINE],27.4%
6,O=C1Nc2ccc(Cl)cc2[C@@](C#CC2CC2)(C(F)(F)F)O1 [EFAVIRENZ],37%
7,NCCCC(N)(C(=O)O)C(F)F (stereo not drawn) [EFLORNITHINE],5.5%
8,CN1C[C@H](C(=O)N[C@]2(C)O[C@@]3(O)[C@@H]4CCCN4C(=O)[C@H](Cc4ccccc4)N3C2=O)C=C2c3cccc4[nH]cc(c34)C[C@H]21 [ERGOTAMINE],16.7%
9,CC[C@H]1OC(=O)[C@H](C)[C@@H](O[C@H]2C[C@@](C)(OC)[C@@H](O)[C@H](C)O2)[C@H](C)[C@@H](O[C@@H]2O[C@H](C)C[C@H](N(C)C)[C@H]2O)[C@](C)(O)C[C@@H](C)C(=O)[C@H](C)[C@@H](O)[C@]1(C)O [ERYTHROMYCIN],14%
10,COC(=O)CCc1ccc(OCC(O)CNC(C)C)cc1 (stereo not drawn) [ESMOLOL],31.2%
11,C[C@]12CC[C@@H]3c4ccc(O)cc4CC[C@H]3[C@@H]1CC[C@@H]2O [ESTRADIOL],83.5%
12,COc1cc([C@@H]2c3cc4c(cc3[C@@H](O[C@@H]3O[C@@H]5CO[C@@H](C)O[C@H]5[C@H](O)[C@H]3O)[C@H]3COC(=O)[C@H]23)OCO4)cc(OC)c1O [ETOPOSIDE],7.5%
13,CCOC(=O)C1=C(C)NC(C)=C(C(=O)OC)C1c1cccc(Cl)c1Cl (stereo not drawn) [FELODIPINE],15.5%
14,CC(C)OC(=O)C(C)(C)Oc1ccc(C(=O)c2ccc(Cl)cc2)cc1 [FENOFIBRATE],0.2%
15,O=c1[nH]cc(F)c(=O)[nH]1 [FLUOROURACIL],0.9%
16,CC(C)C(=O)Nc1ccc([N+](=O)[O-])c(C(F)(F)F)c1 [FLUTAMIDE],34.1%
17,Nc1nc2ncc(CNc3ccc(C(=O)N[C@@H](CCC(=O)O)C(=O)O)cc3)nc2c(=O)[nH]1 [FOLIC ACID],33%
18,NS(=O)(=O)c1cc(C(=O)O)c(NCc2ccco2)cc1Cl [FUROSEMIDE],11.7%
19,NCC1(CC(=O)O)CCCCC1 [GABAPENTIN],15.1%
20,Nc1nc(O)c2ncn(COC(CO)CO)c2n1 [GANCICLOVIR],10.5%
21,Cc1cnc(C(=O)NCCc2ccc(S(=O)(=O)NC(=O)NC3CCCCC3)cc2)cn1 [GLIPIZIDE],-12.7%
22,N[C@H]1C(O)O[C@H](CO)[C@@H](O)[C@@H]1O (stereo partly drawn) [GLUCOSAMINE],13.9%
23,COc1ccc(Cl)cc1C(=O)NCCc1ccc(S(=O)(=O)NC(=O)NC2CCCCC2)cc1 [GLYBURIDE],0.3%

# Same assay, conditions: hek293
row,SMILES,inhibition at 100 µM
1,Cn1cnc([N+](=O)[O-])c1Sc1ncnc2nc[nH]c12 [AZATHIOPRINE],4.2%
2,C[N+](C)(C)CCO [CHOLINE],21.3%
3,CN/C(=N/CCSCc1nc[nH]c1C)NC#N [CIMETIDINE],8.1%
4,O=P1(N(CCCl)CCCl)NCCCO1 (stereo not drawn) [CYCLOPHOSPHAMIDE ANHYDROUS],4.7%
5,CC(C)N(CCC(C(N)=O)(c1ccccc1)c1ccccn1)C(C)C (stereo not drawn) [DISOPYRAMIDE],68.8%
6,NCCc1ccc(O)c(O)c1 [DOPAMINE],11.8%
7,CNC[C@H](O)c1ccc(O)c(O)c1 [EPINEPHRINE],29.1%
8,NC(N)=Nc1nc(CSCCC(N)=NS(N)(=O)=O)cs1 [FAMOTIDINE],13.9%
9,NCCc1c[nH]cn1 [HISTAMINE],4.1%
